In brackets after ≈: the same amount, converted by molar mass.
Columns and labels:
Ad5 [1] = experiment: Ad5 genome replication assay (cell-based QPCR) in A549 cells; details: Human adenovirus sp., A549, 72 h, read-out: Ad5 qPCR EC50 (μM)
Description: Compounds of the present invention were tested for potency against Ad5 in an Ad5 genome replication assay, a cell-based QPCR assay of Ad5 genome replication in A549 cells, a human lung carcinoma cell line. Serotype of human Ad5, used in this replication assay can also replicate in a NZW rabbit model of adenoviral ocular keratitis.
EC50 values (μM) for inhibition of adenoviral replication were determined by QPCR. Briefly, 10,000 cultured A549 cells were inoculated with 25,000 pfu/well for 3 hrs in 2% FBS F12-K A549 culture media. Following inoculation, A549 cells were treated with log unit dilutions of compound of Formula I (˜10 μM thru˜10 pM) in 10% FBS F12-K culture media with 0.3% DMSO for an additional 3 days. Cell viability was assessed with Alamar Blue (10 μl/well for 2 hrs; fluorescence Ex353; Em595 nm). Plates were washed 3 times with 125 μl PBS, cell lysates were prepared for QPCR analysis using Cells to SNP kit (Life Technologies). Ad5 genome levels per cell were determined with RNaseP and Ad5 hexon Taqman Assays (Life Technologies). EC50, the concentration that inhibited Ad5 genome replication formation by 50%, was estimated from plots of Ad5 genomes/cell vs. compound concentration.

Ad3 = experiment: Plaque reduction assay in A549 cells, Ad3; assay type: cell-based; details: unidentified adenovirus, 168 h, approximately 7 d, read-out: Adenovirus Serotype EC50 (μg/mL) Ad3
Description: (§1) Compounds of the present invention were tested for potency against AdV serotypes Ad3, Ad4, Ad5, Ad7a, Ad8, Ad19, and Ad37 in a plaque reduction assay, a cell-based assay of AdV replication. Ad8, Ad19, and Ad37 are the serotypes most commonly associated with epidemic keratoconjunctivitis (EKC). Ad3, Ad4, and Ad7a are serotypes most commonly associated with follicular conjunctivitis and serotype Ad5 can replicate in the NZW rabbit model of adenoviral ocular keratitis. Ad3, Ad4, Ad5, Ad7a, Ad8, and Ad19 were recovered at the Charles T. Campbell Ophthalmic Microbiology Laboratory from patients presenting with typical adenoviral ocular disease. No clinical isolates of Ad37 were available, so the ATCC (American Type Culture Collection, Manassas, Va.) reference strain of Ad37 was used.
(§2) EC50 values (μg/ml) for inhibition of adenoviral replication were determined by plaque reduction assay. Briefly, cultured A549 cells were inoculated with approximately 100 pfu of the indicated adenovirus serotype. Inoculated cells were overlaid with methylcellulose medium containing Compound 2 at 100, 10, 1, 0.1, 0.01, and 0.001 μg/ml, and incubated at 37° C./5% CO2 for approximately 7 d. Plates were stained with gentian violet, and plaques were counted in a 25× dissecting microscope. IC50, the concentration that inhibited plaque formation by 50%, was estimated from plots of mean plaque count vs. concentration.

Ad4 = experiment: Plaque reduction assay in A549 cells, Ad4; assay type: cell-based; details: unidentified adenovirus, 168 h, approximately 7 d, read-out: Adenovirus Serotype EC50 (μg/mL) Ad4
Description: as §1, §2

Ad5 [2] = experiment: Plaque reduction assay in A549 cells, Ad5; assay type: cell-based; details: unidentified adenovirus, A549, 168 h, read-out: Adenovirus Serotype EC50 (μg/mL) Ad5
Description: as §1, §2

Ad7a = experiment: Plaque reduction assay in A549 cells, Ad7a; assay type: cell-based; details: unidentified adenovirus, 168 h, approximately 7 d, read-out: Adenovirus Serotype EC50 (μg/mL) Ad7a
Description: as §1, §2

Ad8 = experiment: Plaque reduction assay in A549 cells, Ad8; assay type: cell-based; details: unidentified adenovirus, A549, 168 h, read-out: Adenovirus Serotype EC50 (μg/mL) Ad8
Description: as §1, §2

Ad19 = experiment: Plaque reduction assay in A549 cells, Ad19; assay type: cell-based; details: unidentified adenovirus, 168 h, approximately 7 d, read-out: Adenovirus Serotype EC50 (μg/mL) Ad19
Description: as §1, §2

Ad37 = experiment: Plaque reduction assay in A549 cells, Ad37; assay type: cell-based; details: unidentified adenovirus, 168 h, approximately 7 d, ATCC reference strain, read-out: Adenovirus Serotype EC50 (μg/mL) Ad37
Description: as §1, §2

SMILES	EC50 (Ad5 [1])	EC50 (Ad3)	EC50 (Ad4)	EC50 (Ad5 [2])	EC50 (Ad7a)	EC50 (Ad8)	EC50 (Ad19)	EC50 (Ad37)
CC(C)C[C@H]1c2[nH]c3ccc(Cl)cc3c2CCN1C(=O)C1CCN(C2CC2)CC1 [Compound 93, (S)-(6-chloro-1-isobutyl-3,4-dihydro-1H-pyrido[3,4-b]indol-2(9H)-yl)(1-cyclopropylpiperidin-4-yl)methanone]	0.1 to 1 µM	0.1 to 1 µg/mL (≈ 0.242 to 2.42 µM)	0.1 to 1 µg/mL (≈ 0.242 to 2.42 µM)	0.1 to 1 µg/mL (≈ 0.242 to 2.42 µM)	0.1 to 1 µg/mL (≈ 0.242 to 2.42 µM)	0.1 to 1 µg/mL (≈ 0.242 to 2.42 µM)	0.1 to 1 µg/mL (≈ 0.242 to 2.42 µM)	0.1 to 1 µg/mL (≈ 0.242 to 2.42 µM)
CC(C)C[C@H]1c2[nH]c3ccc(Cl)cc3c2CCN1C(=O)C1CN(CCC(F)(F)F)C1 [Compound 47, (S)-(6-chloro-1-isobutyl-3,4-dihydro-1H-pyrido[3,4-b]indol-2(9H)-yl)(1-(3,3,3-trifluoropropyl)azetidin-3-yl)methanone]	0.1 to 1 µM	0.1 to 1 µg/mL (≈ 0.226 to 2.26 µM)	0.1 to 1 µg/mL (≈ 0.226 to 2.26 µM)	0.1 to 1 µg/mL (≈ 0.226 to 2.26 µM)	0.1 to 1 µg/mL (≈ 0.226 to 2.26 µM)	0.1 to 1 µg/mL (≈ 0.226 to 2.26 µM)	0.1 to 1 µg/mL (≈ 0.226 to 2.26 µM)	0.1 to 1 µg/mL (≈ 0.226 to 2.26 µM)
CC(C)C[C@H]1c2[nH]c3ccc(Cl)cc3c2CCN1C(=O)CCN1CC[C@H](F)C1 [Compound 35, 1-((S)-6-chloro-1-isobutyl-3,4-dihydro-1H-pyrido[3,4-b]indol-2(9H)-yl)-3-((S)-3-fluoropyrrolidin-1-yl)propan-1-one]	0.1 to 1 µM	0.1 to 1 µg/mL (≈ 0.246 to 2.46 µM)	> 1 µg/mL	0.1 to 1 µg/mL (≈ 0.246 to 2.46 µM)	0.1 to 1 µg/mL (≈ 0.246 to 2.46 µM)	0.1 to 1 µg/mL (≈ 0.246 to 2.46 µM)	0.1 to 1 µg/mL (≈ 0.246 to 2.46 µM)	0.1 to 1 µg/mL (≈ 0.246 to 2.46 µM)
CC(C)C[C@H]1c2[nH]c3ccc(Cl)cc3c2CCN1C(=O)CCN1CCC(F)(F)CC1 [Compound 6, (S)-1-(6-chloro-1-isobutyl-3,4-dihydro-1H-pyrido[3,4-b]indol-2(9H)-yl)-3-(4,4-difluoropiperidin-1-yl)propan-1-one]	< 0.1 µM	< 0.1 µg/mL	0.1 to 1 µg/mL (≈ 0.228 to 2.28 µM)	< 0.1 µg/mL	< 0.1 µg/mL	< 0.1 µg/mL	< 0.1 µg/mL	< 0.1 µg/mL
CC(C)C[C@H]1c2[nH]c3ccc(Cl)cc3c2CCN1C(=O)C1CN(C2CC2)C1 [Compound 92, (S)-(6-chloro-1-isobutyl-3,4-dihydro-1H-pyrido[3,4-b]indol-2(9H)-yl)(1-cyclopropylazetidin-3-yl)methanone]	0.1 to 1 µM	> 1 µg/mL	> 1 µg/mL	0.1 to 1 µg/mL (≈ 0.259 to 2.59 µM)	0.1 to 1 µg/mL (≈ 0.259 to 2.59 µM)	> 1 µg/mL	0.1 to 1 µg/mL (≈ 0.259 to 2.59 µM)	0.1 to 1 µg/mL (≈ 0.259 to 2.59 µM)
CC(C)C[C@H]1c2[nH]c3ccc(Cl)cc3c2CCN1C(=O)CCC1CCCCC1 [Compound 43, (S)-1-(6-chloro-1-isobutyl-3,4-dihydro-1H-pyrido[3,4-b]indol-2(9H)-yl)-3-cyclohexylpropan-1-one]	< 0.1 µM	0.1 to 1 µg/mL (≈ 0.249 to 2.49 µM)	0.1 to 1 µg/mL (≈ 0.249 to 2.49 µM)	< 0.1 µg/mL	< 0.1 µg/mL	< 0.1 µg/mL	< 0.1 µg/mL	< 0.1 µg/mL
CC(C)CC1c2[nH]c3ccc(Cl)cc3c2CCN1C(=O)c1ccncc1 (stereo not drawn) [Compound 65]	0.1 to 1 µM							
CC(C)C[C@H]1c2[nH]c3ccc(Cl)cc3c2CCN1C(=O)C1CN(CC(F)F)C1 [Compound 54]	0.1 to 1 µM							
CC(C)CC1c2[nH]c3ccc(Cl)cc3c2CCN1C(=O)OCCN1CC(F)C1 (stereo not drawn) [Compound 21]	> 1 µM							
CC(C)CC1c2[nH]c3ccc(Cl)cc3c2CCN1C(=O)C1CCN(CCC(F)(F)F)CC1 (stereo not drawn) [Compound 50]	0.1 to 1 µM							
CC(C)C[C@H]1c2[nH]c3ccc(Br)cc3c2CCN1C(=O)CCN1CC[C@H](F)C1 [Compound 105]	0.1 to 1 µM							
CC(C)CC1c2[nH]c3ccc(Cl)cc3c2CCN1C(=O)c1ccco1 (stereo not drawn) [Compound 66]	> 1 µM							
O=C(CCN1CCC(F)(F)CC1)N1CCc2c([nH]c3ccc(Cl)cc23)C1c1ccc(F)cc1 (stereo not drawn) [Compound 5]	> 1 µM							
CC(C)CC1c2[nH]c3ccc(Cl)cc3c2CCN1S(=O)(=O)CCN1CCC(F)(F)CC1 (stereo not drawn) [Compound 36]	> 1 µM							
CC(C)CC1c2[nH]c3ccc(Cl)cc3c2CCN1C(=O)Cc1ccccn1 (stereo not drawn) [Compound 59]	> 1 µM							
CC(C)CC1c2[nH]c3ccc(Cl)cc3c2CCN1C(=O)COC1CCCCC1 (stereo not drawn) [Compound 68]	0.1 to 1 µM							
CC(C)CC1c2[nH]c3ccc(Cl)cc3c2CCN1C(=O)CN1CC(F)C1 (stereo not drawn) [Compound 41]	0.1 to 1 µM							
CC(C)CC1c2[nH]c3ccc(Cl)cc3c2CCN1Cc1ccccn1 (stereo not drawn) [Compound 87]	0.1 to 1 µM							
CC(C)CC1c2[nH]c3ccc(Cl)cc3c2CCN1C(=O)CN1CCC(F)(F)C1 (stereo not drawn) [Compound 84]	0.1 to 1 µM							
CC(C)C[C@H]1c2[nH]c3ccc(Cl)cc3c2CCN1C(=O)C1CCN(CC(F)F)CC1 [Compound 83]	0.1 to 1 µM							
CC(C)CC1c2[nH]c3ccc(Cl)cc3c2CCN1C(=O)COC1CCN(CC(F)F)CC1 (stereo not drawn) [Compound 53]	> 1 µM							

Reference: patent publication US20130116219A1, “ANTIMICROBIAL CARBOLINE COMPOUNDS” (ALCON RESEARCH, LTD., priority 2011, published 2013)
